Holding throughout (format): cell-based
One test has as its system IL-15 induced pSTAT5. Nature of the test: IL-15-induced pSTAT5 in human whole blood (lymphocytes). The following applies: Lymphocyte, JAK1/JAK3, read-out: IL-15 induced pSTAT5, cellular potency IC50. Here is the method:
(§1) Human whole blood was collected from healthy donors via vein puncture into Vacutainer collection tubes containing sodium heparin in accordance with Pfizer protocols (Protocol No. GOHW RDP-01) approved by the Shulman Institutional Review Board. Blood was warmed to 37° C. priorto use. Human whole blood was aliquoted (90 μL/well) in 96-well, deep-well, V-bottom plates and treated with compounds (5 μL/well) at different concentrations up to 60 μM (0.2% DMSO final) at 37° C. for 60 minutes. This was followed by a challenge with IFNα (5000 U/mL), IFNγ (100 ng/mL), IL-6 (50 ng/mL), IL-10 (30 ng/mL), IL-12 (30 ng/mL), IL-15 (30 ng/mL), IL-21 (50 ng/mL), IL-23 (25 ng/mL), IL-27 (1000 ng/mL), EPO (2 U/mL), TSLP (50 ng/mL) or PBS and incubated for 15 minutes. Anti-cell surface antibodies were added 15 minutes prior to cytokine stimulation; anti-CD3-BV421 (0.5 μL/well) to IL-6-treated and TSLP-treated samples and anti-CD14-BV421 (0.5 μL/well) to IFNγ-treated samples. Samples were treated with warm 1×Lyse/Fix buffer (700 μL/well) to terminate activation and further incubated at 37° C. for 20 minutes to lyse red blood cells. Plates were centrifuged at 300×g for 5 minutes, supernatant was aspirated, and cells were washed with 800 μL/well of staining buffer (D-PBS containing 0.1% FBS and 0.01% sodium azide). Washed cell pellets were resuspended in 350 μL/well of prechilled 90% methanol and incubated at 4° C. for 30 minutes. After the removal of 90% methanol, cells were washed once with staining buffer. All samples were finally suspended in 150 μL/well of the desired anti-phospho-STAT antibodies at 1:150 dilution in staining buffer; anti-pSTAT1-AF647 in IFNγ treated samples; anti-pSTAT1-AF488 and anti-pSTAT3-AF647 in IL-6-treated samples, anti-pSTAT3-AF647 in IFNα, IL-10, IL-21, IL-23 and IL-27 treated samples, anti-pSTAT4-AF647 in IL-12 treated samples, anti-pSTAT5-AF-647 in EPO, IL-15 and TSLP-treated samples. Human primary keratinocytes were cultured in DermaLife™ medium with supplement kit to expand cell population. Cell passages 2 to 5 were used in the assays. Cells were harvested at ˜80% confluence, suspended in warm DermaLife™ medium, aliquoted (90 μL/well) in 96-well, deep-well, V-bottom plates, and incubated at 37° C. for 30 minutes. Cells were then treated with compounds (0.0003 to 20 μM) for 60 minutes and followed by stimulation with IL-4 (2 ng/mL) or IL-13 (20 ng/mL) at 37° C. for 15 minutes. […]
(§2) After overnight incubation at 4° C., anti-pSTAT stained samples were transferred into 96-well polypropylene U-bottom plates and flow cytometric analysis was performed on a LSR Fortessa™ equipped with a HTS plate loader. […] Background fluorescence was defined using unstimulated cells and a gate was placed at the foot of the peak to include ˜0.5% gated population. […]

The subject of a further test is TSLP induced pSTAT5. Nature of the test: TSLP-induced pSTAT5 in human whole blood (CD3+ cells). The following applies: JAK1/JAK2, read-out: TSLP induced pSTAT5, cellular potency IC50. Here is the method:
(§3) Human whole blood was collected from healthy donors via vein puncture into Vacutainer collection tubes containing sodium heparin in accordance with Pfizer protocols (Protocol No. GOHW RDP-01) approved by the Shulman Institutional Review Board. Blood was warmed to 37° C. priorto use. Human whole blood was aliquoted (90 μL/well) in 96-well, deep-well, V-bottom plates and treated with compounds (5 μL/well) at different concentrations up to 60 μM (0.2% DMSO final) at 37° C. for 60 minutes. This was followed by a challenge with IFNα (5000 U/mL), IFNγ (100 ng/mL), IL-6 (50 ng/mL), IL-10 (30 ng/mL), IL-12 (30 ng/mL), IL-15 (30 ng/mL), IL-21 (50 ng/mL), IL-23 (25 ng/mL), IL-27 (1000 ng/mL), EPO (2 U/mL), TSLP (50 ng/mL) or PBS and incubated for 15 minutes. Anti-cell surface antibodies were added 15 minutes prior to cytokine stimulation; anti-CD3-BV421 (0.5 μL/well) to IL-6-treated and TSLP-treated samples and anti-CD14-BV421 (0.5 μL/well) to IFNγ-treated samples. Samples were treated with warm 1×Lyse/Fix buffer (700 μL/well) to terminate activation and further incubated at 37° C. for 20 minutes to lyse red blood cells. Plates were centrifuged at 300×g for 5 minutes, supernatant was aspirated, and cells were washed with 800 μL/well of staining buffer (D-PBS containing 0.1% FBS and 0.01% sodium azide). Washed cell pellets were resuspended in 350 μL/well of prechilled 90% methanol and incubated at 4° C. for 30 minutes. After the removal of 90% methanol, cells were washed once with staining buffer. […]
as §2

The subject of another test is IL-13 induced pSTAT6. Nature of the test: IL-13-induced pSTAT6 in human keratinocytes. The following applies: Keratinocyte, JAK1/JAK2, read-out: IL-13 induced pSTAT6, cellular potency IC50. The method, then: as §3, §2
A further test deals with IL-21 induced pSTAT3. As to the kind of experiment: IL-21-induced pSTAT3 in human whole blood (lymphocytes). To be noted: Lymphocyte, JAK1/JAK3, read-out: IL-21 induced pSTAT3, cellular potency IC50. The method, then:
as §1, §2

The subject of another test is IFNg induced pSTATI. As to the kind of experiment: IFNγ-induced pSTAT1 in human whole blood (CD14+ cells). To be noted: JAK1/JAK2, read-out: IFNg induced pSTATI, cellular potency IC50. Here is the method: as §1, §2
For another test, the system named is IL-27 induced pSTAT3. As to the kind of experiment: IL-27-induced pSTAT3 in human whole blood (lymphocytes). To be noted: Lymphocyte, JAK1/JAK2, read-out: IL-27 induced pSTAT3, cellular potency IC50. Here is the method:
as §1, §2

A further test has as its system EPO induced pSTAT5. As to the kind of experiment: EPO-induced pSTAT5 in human whole blood (all events). To be noted: JAK2/JAK2, read-out: EPO induced pSTAT5, cellular potency IC50. Here is the method: as §1, §2
In another test the test system is IL-4 induced pSTAT6. Nature of the test: IL-4-induced pSTAT6 in human keratinocytes. To be noted: Keratinocyte, JAK1/JAK2, read-out: IL-4 induced pSTAT6, cellular potency IC50. Here is the method:
as §3, §2

For a further test, the system named is IL-31 induced pSTAT3. As to the kind of experiment: IL-31-induced pSTAT3 in IFNγ-primed THP-1 cells. To be noted: Homo sapiens, JAK1/JAK2, read-out: IL-31 induced pSTAT3, cellular potency IC50. Here is the method: THP-1 cells were maintained in RPMI 1640 medium containing 10% FBS, 50 μM 2 mercaptoethanol, 50 U/mL penicillin, 50 µg/mL streptomycin and 2 mM L-glutamine. THP 1 cells were treated with IFNγ (20 ng/mL) for 18 hours. IFNγ primed THP-1 cells were resuspended in fresh RPMI 1640 medium, treated with compounds (0.0003 to 20 μM) for 60 minutes, followed by stimulation with IL-31 (1 μg/mL) for additional 10 minutes. Cells were then fixed by 2% paraformaldehyde and permeabilized by 90% methanol. Fixed and permeabilized cells were stained with AlexaFluor647™ labeled anti-pSTAT3 antibody (1 to 150 dilution).
After overnight incubation at 4° C., anti-pSTAT stained samples were transferred into 96-well polypropylene U-bottom plates and flow cytometric analysis was performed on a LSR Fortessa™ equipped with a HTS plate loader. For human whole blood samples, lymphocyte population was gated for pSTAT histogram analysis for IFNα, IL-10, IL-12, IL-15, IL-21, IL-23, and IL-27-treated samples; CD14^+ cells for IFNγ-treated samples; CD3^+ cells for IL-6 and TSLP-treated samples; all events (entire populations) for EPO-treated samples. Entire populations of keratinocytes and THP-1 cells were gated for the IL-4, IL-13, IL-22 and IL-31 assays. Background fluorescence was defined using unstimulated cells and a gate was placed at the foot of the peak to include ˜0.5% gated population. Histogram statistical analysis was performed using FACSDiva version 8.0. Relative fluorescence unit, which measures the level of pSTAT, was calculated by multiplying the percent positive population and its mean fluorescence. Inhibition curves and half maximal inhibitory concentration (IC50) values were determined using Prism™ software (Version 8) or the Activity Base data analysis software (ID Business Solutions).

The next test has as its system IL-6 induced pSTATI. Nature of the test: IL-6-induced pSTAT1 in human whole blood (CD3+ cells). To be noted: JAK1/JAK2, read-out: IL-6 induced pSTATI, cellular potency IC50. The method, then:
as §1, §2

The test system of the next test is IL-23 induced pSTAT3. As to the kind of experiment: IL-23-induced pSTAT3 in human whole blood (lymphocytes). To be noted: Lymphocyte, JAK2/TYK2, read-out: IL-23 induced pSTAT3, cellular potency IC50. Here is the method:
as §1, §2

The next test relates to IL-22 induced pSTAT3. Nature of the test: IL-22-induced pSTAT3 in human keratinocytes. The following applies: Keratinocyte, JAK1/TYK2, read-out: IL-22 induced pSTAT3, cellular potency IC50.
The test system of the next test is IL-10 induced pSTAT3. As to the kind of experiment: IL-10-induced pSTAT3 in human whole blood (lymphocytes). The following applies: Lymphocyte, JAK1/TYK2, read-out: IL-10 induced pSTAT3, cellular potency IC50. The method, then:
as §1, §2

For `CCCS(=O)(=O)N[C@H]1C[C@@H](N(C)c2ncnc3[nH]ccc23)C1` [Abrocitinib, N-((1S,3S)-3-(Methyl(7H-pyrrolo[2,3-d]pyrimidin-4-yl)amino)cyclo-butyl)propane-1-sulfonamide, reference compound], the IC50 with IL-15 induced pSTAT5 amounted to 537 nM; in the test with TSLP induced pSTAT5, 1020 nM; in the test with IL-13 induced pSTAT6 it was 81.9 nM; in the test on IL-21 induced pSTAT3, 516 nM; in the test on IFNg induced pSTATI, 1690 nM; in the test with IL-27 induced pSTAT3, 228 nM. Moreover, the IC50 is 7180 nM in the test with EPO induced pSTAT5; 77 nM in the test with IL-4 induced pSTAT6; 40 nM in the test with IL-31 induced pSTAT3; 343 nM in the test with IL-6 induced pSTATI; over 16500 nM in the test with IL-23 induced pSTAT3; 420 nM in the test on IL-22 induced pSTAT3. The IC50 in the test on IL-10 induced pSTAT3 stood at 3700 nM.

Broadly, the IC50 is the concentration that inhibits the measured activity by half.

These data come from patent US20230219963A1, “PYRROLO[2,3-D]PYRIMIDINE DERIVATIVES” (Pfizer Inc., priority 2020, published 2023).
